One compound from ChEMBL document CHEMBL5729615, “Inhibitors of protein arginine methyltransferase 5 (PRMT5), pharmaceutical products thereof, and methods thereof” (2023) can be followed below.

The target of the assay is PRMT5/MEP50 complex (Homo sapiens, UniProt O14744). The assay can be described thus: 2.5 μL of compound solution in the assay buffer with 4% DMSO and 5 μL of PRMT5/MRP50 complex/SAM mixture solution in the assay buffer which was pre-incubated for 30 minutes were added into a white low volume 384 well microtiter plate. This mixture solution was incubated for 15 minutes with gentle shaking at room temperature. Methyl transfer reaction was initiated by adding 2.5 μL of Biotin-H4 (1-21) peptide substrate solution in the assay buffer. […] The reaction was allowed to perform for 120 minutes in dark with gentle shaking at room temperature after which 5 μL of Anti-H4R3-Me AlphaLISA acceptor beads in detection buffer from the manufacturer was added into the reaction mixture followed by incubation for 60 minutes. 10 μL of Streptavidin labeled AlphaLISA donor beads in detection buffer was added into the mixture followed by 30 minute incubation. Final acceptor and donor beads concentrations were 10 μg/mL. The class given is protein-complex assay.

Usually IC50 stands for the concentration that inhibits the measured activity by half.

Chain of PRMT5/MEP50 complex (O14744 whole entry): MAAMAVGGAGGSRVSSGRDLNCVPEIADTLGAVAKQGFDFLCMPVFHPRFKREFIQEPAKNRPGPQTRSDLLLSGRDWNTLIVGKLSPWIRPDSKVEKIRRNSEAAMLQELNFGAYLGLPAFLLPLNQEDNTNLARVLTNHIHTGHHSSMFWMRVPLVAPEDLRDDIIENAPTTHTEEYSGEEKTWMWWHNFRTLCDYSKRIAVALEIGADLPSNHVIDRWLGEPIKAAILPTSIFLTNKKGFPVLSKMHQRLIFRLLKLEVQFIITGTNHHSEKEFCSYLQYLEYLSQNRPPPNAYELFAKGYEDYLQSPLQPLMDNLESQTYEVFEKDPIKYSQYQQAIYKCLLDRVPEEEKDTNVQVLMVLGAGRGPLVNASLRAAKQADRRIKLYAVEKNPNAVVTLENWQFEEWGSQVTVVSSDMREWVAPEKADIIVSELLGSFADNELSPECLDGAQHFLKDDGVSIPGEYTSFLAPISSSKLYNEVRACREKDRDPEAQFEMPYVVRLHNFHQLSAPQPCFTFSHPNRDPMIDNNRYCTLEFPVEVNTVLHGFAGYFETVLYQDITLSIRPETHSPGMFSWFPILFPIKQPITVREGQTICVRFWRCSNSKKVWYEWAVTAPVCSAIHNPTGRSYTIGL
Chain of PRMT5/MEP50 complex (Q9BQA1 whole entry, further chain): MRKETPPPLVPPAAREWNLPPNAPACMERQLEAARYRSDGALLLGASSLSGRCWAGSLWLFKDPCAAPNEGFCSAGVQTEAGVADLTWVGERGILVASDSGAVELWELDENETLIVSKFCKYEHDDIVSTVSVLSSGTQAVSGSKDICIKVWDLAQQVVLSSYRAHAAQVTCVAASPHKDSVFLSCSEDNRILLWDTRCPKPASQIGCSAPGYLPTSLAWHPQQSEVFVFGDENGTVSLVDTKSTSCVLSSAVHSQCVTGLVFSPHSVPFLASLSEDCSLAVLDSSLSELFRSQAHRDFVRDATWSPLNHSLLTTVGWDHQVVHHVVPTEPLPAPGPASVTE

As for `O=C1c2cc(NC3CCC3)ccc2CCN1CC(O)CN1CCc2ccccc2C1` (stereo unspecified), the concentration for half-maximal inhibition (IC50) is 236 nM.
